Test results reported in patent US5885988A, “Benzo[g]quinoline derivatives” (Novartis AG, priority 1995, dated 1999).

Key:
[1] = molecular target: T1, recombinant human sst1 receptors (Homo sapiens, UniProt P30872); assay: radioligand binding, recombinant human sst1 receptors; settings: read-out: affinity for recombinant human sst1 receptors, pIC50 (converted)
T1 construct: expressed in transfected cells
Source text: (§1) In particular the agents of the invention bind to somatostatin receptors.
(§2) For all the above indications the preferred compound is [3R,4aR,10aR]-1,2,3,4,4a,5,10, 10a-octahydro-6-methoxy-1 -methyl-benzo[g]quinoline-3-carboxylic acid 4-(4-nitro-phenyl)-piperazine amide, which is the compound of example 1.

rat sst1 receptors = rat sst1 receptors (Rattus norvegicus, UniProt P28646); assay: radioligand binding, rat sst1 receptors; settings: read-out: affinity for rat sst1 receptors, pIC50 (converted)
Source text: as §1, §2

[2] = tested on: neurotransmitter receptors; assay: activity at a wide range of neurotransmitter receptors; type: binding
Source text: as §2

[3] = Matched Pairs Situation test; type: in vivo, mice; settings: for potency compared with the compound of example 1: Matched Pairs Situation test and intruder mouse test, 3-30 mg/kg s.c. versus 1-10 mg/kg s.c.
Source text: Furthermore at said doses the compounds of the invention reduce aggressive behavior (attacks, chases, bites) in the Matched Pairs Situation test in mice [Dixon et al., J. Clin. Psychiatry 55: (9) [Suppl. B] 4-7 (1994)]. […] They are therefore indicated for the treatment of affective disorders including bipolar disorders e.g. manic-depressive psychoses, extreme psychotic states e.g. mania, schizophrenia, and excessive mood swings where behavioral stabilization is desired. In addition, the compounds are indicated in anxiety states, generalized anxiety as well as social and agoraphobia, as well as those behavioural states characterized by social withdrawal e.g. negative symptoms.
as §2

intruder mouse test = type: in vivo; settings: for social withdrawal in the intruder mouse test, standard anti-manic drugs: 3-30 mg/kg s.c.
Source text: as §2

T1 sequence (P30872 whole entry): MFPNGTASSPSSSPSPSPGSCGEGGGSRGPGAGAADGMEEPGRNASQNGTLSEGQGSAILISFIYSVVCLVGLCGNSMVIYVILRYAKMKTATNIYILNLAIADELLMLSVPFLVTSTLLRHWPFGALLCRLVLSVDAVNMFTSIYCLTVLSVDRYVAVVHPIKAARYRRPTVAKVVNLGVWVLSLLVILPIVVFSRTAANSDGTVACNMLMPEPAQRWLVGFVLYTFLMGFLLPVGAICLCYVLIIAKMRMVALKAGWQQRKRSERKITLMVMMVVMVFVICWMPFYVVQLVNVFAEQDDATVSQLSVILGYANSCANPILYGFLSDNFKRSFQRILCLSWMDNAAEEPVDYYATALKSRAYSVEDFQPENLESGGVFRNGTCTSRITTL
rat sst1 receptors, sequence (P28646 whole entry): as the sequence (P30872 whole entry) above, with S8P, S11T, P16S, S20G, G25V, G26C, A32S, A45S, T385A, T389S counted along it

| IC50 [1] | IC50 (rat sst1 receptors) | activity for a wide range of neurotransmitter receptors [2] | SMILES | aggressive behavior in the Matched Pairs Situation test ([3]; 1-10 mg/kg s.c.) | social withdrawal in the intruder mouse test (intruder mouse test; 1-10 mg/kg s.c.) | potency compared with the compound of example 1 [3] | social withdrawal in the intruder mouse test, standard anti-manic drugs (intruder mouse test) |
| --- | --- | --- | --- | --- | --- | --- | --- |
| 20 nM | 0.794 nM | without significant activity | COc1cccc2c1C[C@H]1C[C@@H](C(=O)N3CCN(c4ccc([N+](=O)[O-])cc4)CC3)CN(C)[C@@H]1C2 [Example 1, [3R,4aR,10aR]-1,2,3,4,4a ,5,10,10a-octahydro-6-methoxy-1-methyl-benzo[g]quinoline-3-carboxylic acid 4-(4-nitro-phenyl)-piperazine amide] | clearly lowers aggressive behavior | reverses social withdrawal |  |  |
|  |  |  | NC(=O)N1c2ccccc2C=Cc2ccccc21 [carbamazepine] |  |  | less potent | These effects are also observed |
|  |  |  | [Li] [lithium] |  |  | less potent | These effects are also observed |
